target: T1, Human Cav2.2 channels (Homo sapiens, UniProt Q00975); assay: Fluorescent assay for Cav2.2 channels using potassium depolarization to initiate channel opening (Assay Example 1); type: cell-based; settings: Assay Example 1, HEK293 cells expressing human Cav2.2; pre-incubation potassium concentration not stated
T1 construct: expressed in transfected cells; also expresses Kir2.3)
Excerpt: Human Cav2.2 channels were stably expressed in HEK293 cells along with alpha2-delta and beta subunits of voltage-gated calcium channels. An inwardly rectifying potassium channel (Kir2.3) was also expressed in these cells to allow more precise control of the cell membrane potential by extracellular potassium concentration. At low bath potassium concentration, the membrane potential is relatively negative, and is depolarized as the bath potassium concentration is raised. In this way, the bath potassium concentration can be used to regulate the voltage-dependent conformations of the channels. Compounds are incubated with cells in the presence of low (4 mM) potassium or elevated (12, 25 or 30 mM) potassium to determine the affinity for compound block of resting (closed) channels at 4 mM potassium or affinity for block of open and inactivated channels at 12, 25 or 30 mM potassium. After the incubation period, Cav2.2 channel opening is triggered by addition of higher concentration of potassium (70 mM final concentration) to further depolarize the cell. The degree of state-dependent block can be estimated from the inhibitory potency of compounds after incubation in different potassium concentrations.
Calcium influx through Cav2.2 channels is determined using a calcium-sensitive fluorescent dye in combination with a fluorescent plate reader. Fluorescent changes were measured with either a VIPR (Aurora Instruments) or FLIPR (Molecular Devices) plate reader.
• 1. Seed cells in Poly-D-Lysine Coated 96- or 384-well plate and keep in a 37° C.-10% CO2 incubator overnight • 2. Remove media^1, wash cells with 0.2 ml (96-well plate) or 0.05 ml (384-well plate) Dulbecco's Phosphate Buffered Saline (D-PBS) with calcium & magnesium (Invitrogen; 14040) • 3. Add 0.1 ml (96-well plate) or 0.05 ml (384-well plate) of 4 μM fluo-4 (Molecular Probes; F-14202) and 0.02% Pluronic acid (Molecular Probes; P-3000) prepared in D-PBS with calcium & magnesium (Invitrogen; 14040) supplemented with 10 mM Glucose & 10 mM Hepes/NaOH; pH 7.4 • 4. Incubate in the dark at 25° C. for 60-70 min • 5. Remove dye^2, wash cells with 0.1 ml (96-well plate) or 0.06 ml (384-well plate) of 4, 12, 25, or 30 mM Potassium Pre-polarization Buffer. (PPB) • 6. Add 0.1 ml (96-well plate) or 0.03 ml (384-well plate) of 4, 12, 25, 30 mM PPB, with or without test compound • 7. Incubate in the dark at 25° C. for 30 min • 8. Read cell plate on VIPR instrument, Excitation=480 nm, Emission=535 nm • 9. With VIPR continuously reading, add 0.1 ml (96-well plate) or 0.03 ml (384-well plate) of Depolarization Buffer, which is 2× the final assay concentration, to the cell plate.

T1 sequence (Q00975 whole entry): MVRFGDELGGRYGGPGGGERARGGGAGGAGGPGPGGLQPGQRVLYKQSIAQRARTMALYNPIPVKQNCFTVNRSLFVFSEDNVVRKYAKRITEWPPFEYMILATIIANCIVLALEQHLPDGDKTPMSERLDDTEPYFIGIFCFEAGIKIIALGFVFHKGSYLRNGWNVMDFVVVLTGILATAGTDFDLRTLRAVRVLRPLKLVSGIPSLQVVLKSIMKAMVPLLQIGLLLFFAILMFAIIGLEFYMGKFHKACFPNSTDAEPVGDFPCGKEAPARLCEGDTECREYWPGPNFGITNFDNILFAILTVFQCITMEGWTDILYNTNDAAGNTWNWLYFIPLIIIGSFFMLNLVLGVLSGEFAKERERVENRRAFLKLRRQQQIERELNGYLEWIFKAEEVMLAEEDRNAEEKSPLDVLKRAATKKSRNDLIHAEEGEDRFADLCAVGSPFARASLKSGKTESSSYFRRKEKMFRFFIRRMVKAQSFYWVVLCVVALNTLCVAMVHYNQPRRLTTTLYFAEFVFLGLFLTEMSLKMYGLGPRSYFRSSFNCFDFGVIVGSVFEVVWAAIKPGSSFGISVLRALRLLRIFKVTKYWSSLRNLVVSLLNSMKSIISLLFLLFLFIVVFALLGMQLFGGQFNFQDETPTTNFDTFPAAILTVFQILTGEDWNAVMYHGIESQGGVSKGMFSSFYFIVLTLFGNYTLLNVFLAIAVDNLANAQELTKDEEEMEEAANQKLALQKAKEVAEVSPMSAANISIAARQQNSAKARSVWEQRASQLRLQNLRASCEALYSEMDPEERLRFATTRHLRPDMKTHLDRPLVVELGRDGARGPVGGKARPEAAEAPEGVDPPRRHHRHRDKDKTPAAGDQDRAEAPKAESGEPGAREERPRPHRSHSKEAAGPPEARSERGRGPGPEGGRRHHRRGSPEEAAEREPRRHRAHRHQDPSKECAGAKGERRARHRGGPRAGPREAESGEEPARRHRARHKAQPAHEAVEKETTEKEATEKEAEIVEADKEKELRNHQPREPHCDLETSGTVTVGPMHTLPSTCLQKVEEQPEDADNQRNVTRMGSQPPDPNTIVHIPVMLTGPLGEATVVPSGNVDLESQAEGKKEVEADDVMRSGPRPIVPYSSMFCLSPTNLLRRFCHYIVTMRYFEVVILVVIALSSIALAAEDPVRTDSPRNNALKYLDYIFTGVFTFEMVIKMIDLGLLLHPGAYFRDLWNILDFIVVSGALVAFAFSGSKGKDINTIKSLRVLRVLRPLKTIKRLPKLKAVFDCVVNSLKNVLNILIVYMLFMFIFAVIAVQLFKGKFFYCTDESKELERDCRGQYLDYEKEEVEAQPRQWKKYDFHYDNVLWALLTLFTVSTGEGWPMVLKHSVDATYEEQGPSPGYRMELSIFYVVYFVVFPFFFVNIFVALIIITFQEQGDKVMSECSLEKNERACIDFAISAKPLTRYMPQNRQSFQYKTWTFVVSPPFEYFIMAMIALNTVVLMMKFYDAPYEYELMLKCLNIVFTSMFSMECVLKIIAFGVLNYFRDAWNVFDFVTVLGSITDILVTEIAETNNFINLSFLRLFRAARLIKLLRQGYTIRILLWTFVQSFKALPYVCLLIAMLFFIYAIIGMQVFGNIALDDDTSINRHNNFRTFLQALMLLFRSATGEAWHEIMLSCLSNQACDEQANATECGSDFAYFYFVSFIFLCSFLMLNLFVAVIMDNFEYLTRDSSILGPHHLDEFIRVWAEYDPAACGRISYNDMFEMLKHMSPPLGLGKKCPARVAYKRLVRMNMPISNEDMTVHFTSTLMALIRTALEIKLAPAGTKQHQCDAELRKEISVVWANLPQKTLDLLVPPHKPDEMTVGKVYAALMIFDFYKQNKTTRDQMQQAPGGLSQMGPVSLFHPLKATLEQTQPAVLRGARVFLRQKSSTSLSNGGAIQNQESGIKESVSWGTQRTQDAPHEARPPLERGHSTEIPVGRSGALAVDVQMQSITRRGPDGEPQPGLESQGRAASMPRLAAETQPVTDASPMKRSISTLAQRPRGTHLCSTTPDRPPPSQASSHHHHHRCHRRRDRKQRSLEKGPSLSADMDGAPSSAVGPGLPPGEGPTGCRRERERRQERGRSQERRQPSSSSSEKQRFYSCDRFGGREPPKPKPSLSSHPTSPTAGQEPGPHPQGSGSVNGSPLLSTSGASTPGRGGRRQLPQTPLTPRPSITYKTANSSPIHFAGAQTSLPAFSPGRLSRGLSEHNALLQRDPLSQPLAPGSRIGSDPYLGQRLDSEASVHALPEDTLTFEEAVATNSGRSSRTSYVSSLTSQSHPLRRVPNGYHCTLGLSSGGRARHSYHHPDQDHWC

SMILES	IC50
CC(C)(C1CCN(C(=O)c2nc3ccc(F)cc3[nH]2)CC1)S(=O)(=O)c1cccc(C(F)(F)F)c1	0.79 µM
CC(C)(C1CCN(C(=O)c2cccc3nccnc23)CC1)S(=O)(=O)c1cccc(C(F)(F)F)c1	1.4 µM
CC(C)(C1CCN(C(=O)c2c[nH]c(-c3ccccc3)n2)CC1)S(=O)(=O)c1cccc(C(F)(F)F)c1	1.39 µM
CC(C)(C1CCN(C(=O)c2cccc(F)c2)CC1)S(=O)(=O)c1cccc(C(F)(F)F)c1	0.83 µM
CC(C)(C1CCN(C(=O)C2(N)CCC2)CC1)S(=O)(=O)c1cccc(C(F)(F)F)c1	1.17 µM

Stronger by IC50, values ahead:

IC50	SMILES
0.51 µM	CC(C)(C1CCN(C(=O)[C@H](O)Cc2ccccc2)CC1)S(=O)(=O)c1cccc(C(F)(F)F)c1
0.49 µM	CC(C)(C)c1ccc(C(=O)N2CCC(C(C)(C)S(=O)(=O)c3cccc(C(F)(F)F)c3)CC2)cc1
0.49 µM	CC(C)(C1CCN(C(=O)[C@@H](N)Cc2ccccc2)CC1)S(=O)(=O)c1cccc(C(F)(F)F)c1
0.36 µM	CC(C)(C1CCN(C(=O)C[C@@H](NS(C)(=O)=O)c2ccccc2)CC1)S(=O)(=O)c1cccc(C(F)(F)F)c1
0.15 µM	CC(C)(C1CCN(C(=O)c2ccc(C(F)(F)F)cc2S(C)(=O)=O)CC1)S(=O)(=O)c1cccc(C(F)(F)F)c1
